Data taken from EP4640678A1, “NOVEL OXO-PYRIDINE COMPOUND, PREPARATION METHOD THEREFOR, AND USE THEREOF” (Chengdu Shibeikang Biomedical Technology Co., Ltd., priority 2022, dated 2024).

Key:
[1] = Effect of continuous in-vivo administration on general condition and food intake of rats; conditions: for Food intake (g, mean±SD) / food intake compared with the blank group: 500 mg/kg PO once a day for 14 days, within 24 hours after the last administration
Source text: Each group had 10 rats, equally distributed by gender. The rats received drug administrations via oral gavage once a day for 14 consecutive days, following the administration regimen outlined in the table below. The blank group was given an equal volume of a vehicle. […] Table 4 Continuous administration regimen

human plasma = test: determination of in-vitro anticoagulant effect in human plasma (APTT); assay type: biochemical; conditions: for APTT prolongation rate (%): healthy human plasma, 37°C for 3 min
Method: After centrifugation, the plasma sample was pipetted and frozen (-80°C) for later use.
A proper amount of a compound was weighed and prepared into a 10-100 mM stock solution using 100% of DMSO (the specific concentration of the stock solution was determined based on the properties of the compound); and then working solutions with various concentrations (specifically: 1 µM, 3 µM and 10 µM, respectively) were prepared from the stock solution using the healthy human plasma as a solution and thoroughly mixed. After incubation at 37°C for 3 min, the sample was placed on an instrument (model: CS-2000I) to determine APTT.
GraphPad Prism software was used for analysis to calculate the APTT prolongation rate at each concentration.

human FXla = human FXla (Homo sapiens, UniProt P03951); test: Activity assay of coagulation factor FXla inhibitor (S-2366 substrate, OD405nm); assay type: biochemical; conditions: 5 concentrations 200 nM to 0.32 nM, 0.8 nM (2X) human FXla working solution
Source text: X: log value of compound concentration; Y: inhibition rate (%).

human FXla, sequence (P03951 388-625 limits assumed): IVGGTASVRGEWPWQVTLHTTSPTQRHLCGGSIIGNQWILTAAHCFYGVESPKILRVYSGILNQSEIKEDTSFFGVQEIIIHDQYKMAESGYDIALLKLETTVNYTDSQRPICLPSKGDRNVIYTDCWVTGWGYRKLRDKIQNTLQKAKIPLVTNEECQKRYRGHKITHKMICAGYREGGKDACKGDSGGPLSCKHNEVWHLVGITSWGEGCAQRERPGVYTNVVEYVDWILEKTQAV
human FXla, sequence (P03951 19-387 partner limits assumed): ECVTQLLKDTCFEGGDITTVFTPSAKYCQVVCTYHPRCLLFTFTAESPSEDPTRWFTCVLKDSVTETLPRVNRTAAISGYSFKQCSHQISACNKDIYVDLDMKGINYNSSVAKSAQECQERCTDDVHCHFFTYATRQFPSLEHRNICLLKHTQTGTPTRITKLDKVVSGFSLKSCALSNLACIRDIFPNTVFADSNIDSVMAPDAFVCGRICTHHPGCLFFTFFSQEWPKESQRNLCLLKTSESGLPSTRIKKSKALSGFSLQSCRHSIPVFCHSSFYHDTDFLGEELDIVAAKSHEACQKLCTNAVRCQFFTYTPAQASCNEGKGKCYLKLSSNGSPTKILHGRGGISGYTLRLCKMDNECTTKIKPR

| IC50 (human FXla) [nM] | Compound | Food intake (g, mean±SD) [1] [g] | general condition of the rats ([1]; SD rats, 500 mg/kg PO once a day for 14 consecutive days) | food intake compared with the blank group ([1]; SD rats) | APTT prolongation rate (%) (human plasma; 3 µM) | APTT prolongation rate (%) (human plasma; 10 µM) | EC150 (human plasma; estimated from the APTT test results in human plasma) | APTT prolongation rate (%) (human plasma; 1 µM) |
| --- | --- | --- | --- | --- | --- | --- | --- | --- |
| – | CC[C@@H](C(=O)Nc1ccc(C(N)=O)c(F)c1)n1cc(OC)c(-c2cc(Cl)ccc2-n2cc(C(F)(F)F)nn2)cc1=O [Comparative example 1, (S)-4-(2-(4-(5-chloro-2-(4-(trifluoromethyl)-1H-1,2,3-triazol-1-yl)phenyl)-5-methoxy-2-oxopyridin-1(2H)-yl)butanamido)-2-fluorobenzamide, reference compound] | 24.98 ± 0.92 | piloerection and hypoactivity were found in 1/3 or more of the rats | significantly reduced food intake | – | – | – | – |
| 7.53 | CC[C@@H](C(=O)Nc1ccc(C(N)=O)c(Cl)c1)n1cc(OC)c(-c2cc(Cl)ccc2-n2cc(C(F)(F)F)nn2)cc1=O [Compound 1, (S)-2-chloro-4-(2-(4-(5-chloro-2-(4-(trifluoromethyl)-1H-1,2,3-triazol-1-yl)phenyl)-5-methoxy-2-oxopyridin-1(2H)-yl)butanamido)benzamide] | – | – | – | 65.8 | 136.5 | less than 1 µM | – |
| – | CC[C@@H](C(=O)Nc1ccc(C(=O)NC)c(Cl)c1)n1cc(OC)c(-c2cc(Cl)ccc2-n2cc(C(F)(F)F)nn2)cc1=O [Compound 3, (S)-2-chloro-4-(2-(4-(5-chloro-2-(4-(trifluoromethyl)-1H-1,2,3-triazol-1-yl)phenyl)-5-methoxy-2-oxopyridin-1(2H)-yl)butanamido)-N-methylbenzamide] | – | – | – | 66.5 | 92.0 | – | 48.2 |
| – | CC[C@@H](C(=O)Nc1ccc(C(=O)OC)c(Cl)c1)n1cc(OC)c(-c2cc(Cl)ccc2-n2cc(C(F)(F)F)nn2)cc1=O [Compound 4, Methyl (S)-2-chloro-4-(2-(4-(5-chloro-2-(4-(trifluoromethyl)-1H-1,2,3-triazol-1-yl)phenyl)-5-methoxy-2-oxopyridin-1(2H)-yl)butanamido)benzoate] | – | – | – | 54.3 | 102.6 | – | 31.5 |
| – | CC[C@@H](C(=O)Nc1ccc(C(N)=O)c(C(F)(F)F)c1)n1cc(OC)c(-c2cc(Cl)ccc2-n2cc(C(F)(F)F)nn2)cc1=O [Compound 7, (S)-4-(2-(4-(5-chloro-2-(4-(trifluoromethyl)-1H-1,2,3-triazol-1-yl)phenyl)-5-methoxy-2-oxopyridin-1(2H)-yl)butanamido)-2-(trifluoromethyl)benzamide] | – | – | – | 52.4 | 73.4 | – | 37.9 |
| – | CC[C@@H](C(=O)Nc1ccc(C(N)=O)c(C(N)=O)c1)n1cc(OC)c(-c2cc(Cl)ccc2-n2cc(C(F)(F)F)nn2)cc1=O [Compound 8, (S)-4-(2-(4-(5-chloro-2-(4-(trifluoromethyl)-1H-1,2,3-triazol-1-yl)phenyl)-5-methoxy-2-oxopyridin-1(2H)-yl)butanamido)phthalamide] | – | – | – | 64.5 | 93.8 | – | 34.7 |
| – | CC[C@@H](C(=O)Nc1ccc(C(N)=O)c(Cl)c1)n1cc(OC)c(-c2cc(Cl)ccc2-n2cc(Cl)nn2)cc1=O [Compound 10, (S)-2-chloro-4-(2-(4-(5-chloro-2-(4-chloro-1H-1,2,3-triazol-1-yl)phenyl)-5-methoxy-2-oxopyridin-1(2H)-yl)butanamido)benzamide] | – | – | – | 56.0 | 98.9 | – | 38.6 |
| – | CC[C@@H](C(=O)Nc1ccc(C(N)=O)c(C(F)(F)F)c1)n1cc(OC)c(-c2cc(Cl)ccc2-n2cc(Cl)nn2)cc1=O [Compound 11, (S)-4-(2-(4-(5-chloro-2-(4-chloro-1H-1,2,3-triazol-1-yl)phenyl)-5-methoxy-2-oxopyridin-1(2H)-yl)butanamido)-2-(trifluoromethyl)benzamide] | – | – | – | 26.9 | 42.0 | – | 18.7 |
| – | CC[C@@H](C(=O)Nc1ccc(C(N)=O)c(F)c1F)n1cc(OC)c(-c2cc(Cl)ccc2-n2cc(C(F)(F)F)nn2)cc1=O [Compound 12, (S)-4-(2-(4-(5-chloro-2-(4-(trifluoromethyl)-1H-1,2,3-triazol-1-yl)phenyl)-5-methoxy-2-oxopyridin-1(2H)-yl)butanamido)-2,3-difluorobenzamide] | – | – | – | 33.5 | 81.1 | – | 23.2 |
| – | CC[C@@H](C(=O)Nc1c(Cl)cc(C(N)=O)cc1Cl)n1cc(OC)c(-c2cc(Cl)ccc2-n2cc(C(F)(F)F)nn2)cc1=O [Compound 15, (S)-3,5-dichloro-4-(2-(4-(5-chloro-2-(4-(trifluoromethyl)-1H-1,2,3-triazol-1-yl)phenyl)-5-methoxy-2-oxopyridin-1(2H)-yl)butanamido)benzamide] | – | – | – | 30.0 | 51.1 | – | 24.2 |
| – | CC[C@@H](C(=O)Nc1ccc(C(N)=O)cc1Cl)n1cc(OC)c(-c2cc(Cl)ccc2-n2cc(C(F)(F)F)nn2)cc1=O [Compound 16, (S)-3-chloro-4-(2-(4-(5-chloro-2-(4-(trifluoromethyl)-1H-1,2,3-triazol-1-yl)phenyl)-5-methoxy-2-oxopyridin-1(2H)-yl)butanamido)-benzamide] | – | – | – | 11.7 | 26.8 | – | 7.0 |
| – | CC[C@@H](C(=O)Nc1ccc(C(=O)NC)cc1F)n1cc(OC)c(-c2cc(Cl)ccc2-n2cc(C(F)(F)F)nn2)cc1=O [Compound 19, (S)-4-(2-(4-(5-chloro-2-(4-(trifluoromethyl)-1H-1,2,3-triazol-1-yl)phenyl)-5-methoxy-2-oxopyridin-1(2H)-yl)butanamido)-3-fluoro-N-methylbenzamide] | – | – | – | 44.0 | 77.1 | – | 24.2 |
| – | CC[C@@H](C(=O)Nc1cc(F)c(C(=O)NC)c(F)c1)n1cc(OC)c(-c2cc(Cl)ccc2-n2cc(C(F)(F)F)nn2)cc1=O [Compound 20, (S)-4-(2-(4-(5-chloro-2-(4-(trifluoromethyl)-1H-1,2,3-triazol-1-yl)phenyl)-5-methoxy-2-oxopyridin-1(2H)-yl)butanamido)-2,6-difluoro-N-methylbenzamide] | – | – | – | 49.2 | 98.6 | – | 19.2 |
| – | [2H]C([2H])([2H])Oc1cn([C@@H](CC)C(=O)Nc2ccc(C(N)=O)c(F)c2)c(=O)cc1-c1cc(Cl)ccc1-n1cc(C(F)(F)F)nn1 [Compound 21, (S)-4-(2-(4-(5-chloro-2-(4-(trifluoromethyl)-1H-1,2,3-triazol-1-yl)phenyl)-5-(methoxy-d3)-2-oxopyridin-1(2H)-yl)butanamido)-2-fluorobenzamide] | 27.08 ± 1.23 | – | essentially the same food intake as the blank group | – | – | – | – |
| – | [2H]C([2H])([2H])Oc1cn([C@@H](CC)C(=O)Nc2ccc(C(N)=O)cc2F)c(=O)cc1-c1cc(Cl)ccc1-n1cc(C(F)(F)F)nn1 [Compound 23, (S)-4-(2-(4-(5-chloro-2-(4-(trifluoromethyl)-1H-1,2,3-triazol-1-yl)phenyl)-5-(methoxy-d3)-2-oxopyridin-1(2H)-yl)butanamide)-3-fluorobenzamide] | – | – | – | 81.2 | 168.0 | – | 48.8 |
| – | [2H]C([2H])([2H])Oc1cn([C@@H](CC)C(=O)Nc2ccc(C(=O)NC)cc2F)c(=O)cc1-c1cc(Cl)ccc1-n1cc(C(F)(F)F)nn1 [Compound 24, (S)-4-(2-(4-(5-chloro-2-(4-(trifluoromethyl)-1H-1,2,3-triazol-1-yl)phenyl)-5-(methoxy-d3)-2-oxopyridin-1(2H)-yl)butanamido)-3-fluoro-N-methylbenzamide] | – | – | – | 73.2 | 132.5 | – | 35.1 |
| – | [2H]C([2H])([2H])NC(=O)c1ccc(NC(=O)[C@@H](n2cc(OC([2H])([2H])[2H])c(-c3cc(Cl)ccc3-n3cc(C(F)(F)F)nn3)cc2=O)C([2H])([2H])C([2H])([2H])[2H])cc1F [Compound 30, (S)-4-(2-(4-(5-chloro-2-(4-(trifluoromethyl)-1H-1,2,3-triazol-1-yl)phenyl)-5-(methoxy-d3)-2-oxopyridin-1(2H)-yl)butanamido-3,3,4,4,4-d5)-2-fluoro-N-(methyl-d3)benzamide] | – | – | – | 79.0 | 138.4 | – | 48.1 |
| – | (S)-4-(2-(4-(5-chloro-2-(4-(trifluoromethyl)-1H-1,2,3-triazol-1-yl)phenyl)-5-methoxy-2-oxopyridin-1(2H)-yl)butanamido)-3,6-difluorobenzamide [Compound 14] | – | – | – | 9.1 | 18.5 | – | 0.9 |
